This is an account of results in patent US8173131B2, “Compositions and methods for modulating RSV infection and immunity” (PerkinElmer Health Sciences, Inc., priority 2000, dated 2012).

Like-named read-outs stand apart in the source and are kept apart here.

Experiment [1] has as its system cell trafficking to the lung (BAL cells). The experiment can be described thus: In vivo cell trafficking to the lung of naïve mice after intranasal treatment. To be noted: for Percentage of cells from BAL determined by flow cytometry: B220 / Percentage of cells from BAL determined by flow cytometry: CD4 / Percentage of cells from BAL determined by flow cytometry: CD8 / Percentage of cells from BAL determined by flow cytometry: CD11b / Percentage of cells from BAL determined by flow cytometry: DX5 / Percentage of cells from BAL determined by flow cytometry: RB6-8C5 / Percentage of cells from BAL determined by H&E stain: Eosinophil / Percentage of cells from BAL determined by H&E stain: Lymphocyte / Percentage of cells from BAL determined by H&E stain: Macrophage / Percentage of cells from BAL determined by H&E stain: PMN: day 2 post-treatment; for Percentage of cells from BAL determined by flow cytometry: B220 / Percentage of cells from BAL determined by flow cytometry: CD4 / Percentage of cells from BAL determined by flow cytometry: CD8: lymphocyte gate; for Percentage of cells from BAL determined by flow cytometry: CD11b / Percentage of cells from BAL determined by flow cytometry: DX5 / Percentage of cells from BAL determined by flow cytometry: RB6-8C5: ungated events; for Percentage of cells from BAL determined by H&E stain: Eosinophil / Percentage of cells from BAL determined by H&E stain: Lymphocyte / Percentage of cells from BAL determined by H&E stain: Macrophage / Percentage of cells from BAL determined by H&E stain: PMN / mean BAL cell numbers (±SEM) recovered: naïve BALB/c mice; for Percentage of cells from BAL determined by H&E stain: Eosinophil / Percentage of cells from BAL determined by H&E stain: Lymphocyte / Percentage of cells from BAL determined by H&E stain: Macrophage / Percentage of cells from BAL determined by H&E stain: PMN: i.n. 1 μM, median ± SE; for mean BAL cell numbers (±SEM) recovered: intranasal 1 μM, 48 hours post-treatment. More on the design: species or system BALB/c mice. The method, then: FIG. 5A is a bar graph showing leukocyte chemotaxis toward G glycoprotein or fractalkine (Fkn) in the presence or absence of anti-CX3CR1 antibody or normal rabbit sera. The chemotactic index determined from the fold increase of murine leukocyte migration toward the chemoattractant (e.g., Fkn or G glycoprotein) over the leukocyte migration toward the media alone control using modified Boyden chambers. Fkn, G glycoprotein, […] (10 μg) or normal rabbit sera (10 μg) was added to the upper chamber to examine antagonism of cell migration toward the chemoattractant in the lower chamber. FIG. 5B is a bar graph showing cell trafficking to the lung of naïve BALB/c mice intranasally treated with G glycoprotein, fractalkine or G glycoprotein peptides RT32, RT33 or RT34. BAL cells were fixed and stained with H&E. Cell subsets were determined as a percentage of the total BAL cells counted from >200 cells/slide counting two slides for each experiment. The percent cell type represents the median±SE from three separate experiments. * indicates significant difference compared to tissue culture media alone (p<0.05). Naïve BALB/c mice were i.n. treated with 1 μM G glycoprotein or fractalkine or with 1 μM G glycoprotein peptides. The BAL was collected 2 days post-treatment for analysis.
Cell trafficking to the lung in naïve and FI-RSV-immune BALB/c mice was examined following intranasal treatment with either 1 μM fractalkine, RSV G glycoprotein or RSV G peptides. All mice were females purchased from Harlan Sprague Dawley (Indianapolis, Ind.) and maintained at the Centers for Disease Control and Prevention in Atlanta, Ga. FI-RSV-immune mice were immunized in the superficial gluteal muscle using 10^6 pfu equivalents of FI-RSV in accordance with methods known to those skilled in the art. Mice were anesthetized with 2,2,2,-tribromoethanol and intranasally treated with 0.05 ml of either fractalkine, RSV G glycoprotein or peptide diluted in PBS (GIBCO). At day two post-treatment, the mice were anesthetized, exsanguinated by severing the right caudal artery, and the bronchoalveolar (BAL) cells collected in PBS containing 1% BSA (Sigma). BAL cells were blocked with 10% normal mouse sera (Jackson Laboratories, Bar Harbor, Me.) in PBS, and then stained with the appropriate combinations of FITC- or PE-labeled anti-CD3 (145-2C11), anti-CD4 (GK1.5), anti-CD8 (53-6.7), anti-CD11b (M1/70), anti-CD45R/B220 (RA3-6B2), anti-pan NK cell (DX5), anti-neutrophil (RB6-8C5), and mouse isotype Ab controls (all from PharMingen, San Diego, Calif.). The distribution of cell surface markers was determined in two-color mode on a FACScan with CellQUEST software (Becton-Dickinson, Mountain View, Calif.).

Experiment [2] concerns murine spleen leukocyte cell migration. The experiment can be described thus: Murine leukocyte chemotaxis in modified Boyden chamber. Type of experiment: cell-based, mouse. On the procedure: The chemotactic index was determined from the fold increase of murine spleen leukocyte cell migration toward the chemoattractant (e.g., Fkn or G glycoprotein) over the leukocyte migration toward media alone control, using modified Boyden chambers. Fkn, G glycoprotein, recombinant polyhistidine-tagged G glycoprotein (GHIS), anti-CX3CR1 monoclonal antibody (2A9-1), normal rabbit serum, rabbit anti-CX3CR1 serum, anti-G glycoprotein monoclonal antibody (131-2G) or anti-F glycoprotein monoclonal antibody (131-2A) were added to the upper chamber to examine antagonism of cell migration toward the chemoattractant in the lower chamber.
Leukocyte chemotaxis toward Fkn, G glycoprotein or media was measured according to Boyden^46 using 24 well plates (Costar, Cambridge, Mass.) with 3 μm filter inserts (Nalge Nunc, Rochester, N.Y.) coated with an extracellular matrix consisting primarily of laminin, collagen IV and proteoglycan (ECM, Sigma, St. Louis, Mo.). For murine studies, 5×10^5 naïve spleen cells was placed in the upper chamber and 10 nM mouse Fkn or 10 nM G glycoprotein, anti-CX3CR1 antibody, anti-G or anti-F glycoprotein monoclonal antibody, normal rabbit sera, rabbit anti-CCR5 sera or media was placed in the upper or lower chamber as appropriate. For human studies, 10^6 density gradient purified (Lymphocyte Separation Media, ICN Biomedicals, Aurora, Ohio, per manufacture instructions) peripheral blood mononuclear cells (PBMC) from normal human adult donors was placed in the upper chamber in the presence or absence of 1 μM peptide RT33, and 10 nM human Fkn, 10 nM G glycoprotein or 1 μM peptide RT33 placed in the lower chambers. The modified Boyden chamber was incubated at 37° C. for 4-6 h, the inserts removed, washed in PBS (GIBCO BRL), fixed in 3% gluteraldehyde and stained in formalin-buffered 0.01% crystal violet. Chemotactic cells were visualized with a microscope. Chemotactic cells were analyzed for CX3CR1 expression by collecting cells from the upper or lower modified Boyden chambers, antibody staining (2A9-1) and flow cytometry as described. Leucocytes chemotactic toward G or Fkn expressed a higher percent of CX3CR1 in the lower (25-30%) versus upper chamber (7-11%).

Experiment [3] has as its target T1, Fkn binding to 293-CX3CR1 cells (Homo sapiens, UniProt P49238).
T1 construct: host or cells: HEK 293 cells stably transfected with CX3CR1

[4] abbreviates: substance added to upper chamber as antagonist.

T1 sequence (P49238 whole entry): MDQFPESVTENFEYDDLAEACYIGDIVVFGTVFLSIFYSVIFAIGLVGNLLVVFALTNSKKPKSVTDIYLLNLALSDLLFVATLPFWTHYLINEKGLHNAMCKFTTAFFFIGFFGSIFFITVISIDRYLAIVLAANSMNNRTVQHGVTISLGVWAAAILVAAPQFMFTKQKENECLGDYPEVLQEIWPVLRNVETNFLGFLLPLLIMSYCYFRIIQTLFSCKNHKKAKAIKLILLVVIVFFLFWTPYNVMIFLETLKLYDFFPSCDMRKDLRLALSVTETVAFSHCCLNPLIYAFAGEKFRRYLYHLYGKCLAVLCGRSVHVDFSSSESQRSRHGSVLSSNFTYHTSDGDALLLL

“Fkn: CX3C chemokine fractalkine (R&D), ligand of CX3CR1 [reference compound]”: in experiment [1], the “Percentage of cells from BAL determined by flow cytometry: B220” value (from here on “Percentage of cells from BAL … B220”) came out at 6 ± 2%, the “Percentage of cells from BAL determined by flow cytometry: CD4” value (from here on “Percentage of cells from BAL … CD4”) was found to be 16 ± 4%, the “Percentage of cells from BAL determined by flow cytometry: CD8” value (“Percentage of cells from BAL … CD8” for short) stood at 6 ± 2% and the “Percentage of cells from BAL determined by flow cytometry: CD11b” value (“Percentage of cells from BAL … CD11b” for short) was 12 ± 4%. Besides, in experiment [1], the “Percentage of cells from BAL determined by flow cytometry: DX5” value (shortened to “Percentage of cells from BAL … DX5”) is on record as 17 ± 8%, the “Percentage of cells from BAL determined by flow cytometry: RB6-8C5” value (from here on “Percentage of cells from BAL … RB6-8C5”) is given as 10 ± 6%, the “Percentage of cells from BAL determined by H&E stain: Eosinophil” value (“Percentage of cells from BAL … Eosinophil” for short) came out at 0 ± 0% and the “Percentage of cells from BAL determined by H&E stain: Lymphocyte” value (“Percentage of cells from BAL … Lymphocyte” below) was 10 ± 3%. In experiment [1], the “Percentage of cells from BAL determined by H&E stain: Macrophage” value (shortened to “Percentage of cells from BAL … Macrophage”) is listed as 71 ± 10%, the “Percentage of cells from BAL determined by H&E stain: PMN” value (“Percentage of cells from BAL … PMN” for short) stood at 16 ± 5% and the “mean BAL cell numbers (±SEM) recovered” value is 3.8 (±0.6) ×10^5 cells/ml. The “chemotactic index toward G glycoprotein” value in experiment [2] (setting [4]) is reported as 1.2. Besides, the “inhibition of leukocyte chemotaxis toward G glycoprotein” value in experiment [2] (substance in upper chamber) is “approximately 75%”.
Take NKKPGKKTTTKP [RT34]: in experiment [1], the “Percentage of cells from BAL … B220” value is 4 ± 2%, the “Percentage of cells from BAL … CD4” value is on record as 6 ± 2%, the “Percentage of cells from BAL … CD8” value turned out to be 3 ± 3% and the “Percentage of cells from BAL … CD11b” value was 3 ± 1%. Besides, in experiment [1], the “Percentage of cells from BAL … DX5” value is given as 6 ± 2%, the “Percentage of cells from BAL … RB6-8C5” value amounted to 6 ± 4%, the “Percentage of cells from BAL … Eosinophil” value was 0 ± 0% and the “Percentage of cells from BAL … Lymphocyte” value came out at 8 ± 2%. In addition, in experiment [1], the “Percentage of cells from BAL … Macrophage” value stood at 86 ± 8%, the “Percentage of cells from BAL … PMN” value came out at 8 ± 3% and the “mean BAL cell numbers (±SEM) recovered” value is 2.8 (±0.2) ×10^5 cells/ml.
On to TCWAICKRIPNK [RT33], for which, in experiment [1], the “Percentage of cells from BAL … B220” value is 4 ± 2%, the “Percentage of cells from BAL … CD4” value was found to be 10 ± 2%, the “Percentage of cells from BAL … CD8” value is listed as 4 ± 2% and the “Percentage of cells from BAL … CD11b” value was 10 ± 4%. In addition, in experiment [1], the “Percentage of cells from BAL … DX5” value was determined as 10 ± 2%, the “Percentage of cells from BAL … RB6-8C5” value turned out to be 12 ± 2%, the “Percentage of cells from BAL … Eosinophil” value was determined as 0 ± 0% and the “Percentage of cells from BAL … Lymphocyte” value was 4 ± 2%. In addition, in experiment [1], the “Percentage of cells from BAL … Macrophage” value is reported as 76 ± 8%, the “Percentage of cells from BAL … PMN” value is on record as 16 ± 6% and the “mean BAL cell numbers (±SEM) recovered” value was 3.5 (±0.3) ×10^5 cells/ml. The “Range of Inhibition (%) of Fkn binding” value in experiment [3] (heparin 5 μg/ml + peptide 1 μM) is 70-80%.
On to VPCSICSNNPTC [RT32], for which, in experiment [1], the “Percentage of cells from BAL … B220” value was 3 ± 2%, the “Percentage of cells from BAL … CD4” value worked out at 2 ± 2%, the “Percentage of cells from BAL … CD8” value is listed as 2 ± 2% and the “Percentage of cells from BAL … CD11b” value is given as 3 ± 2%. Besides, in experiment [1], the “Percentage of cells from BAL … DX5” value was 2 ± 1%, the “Percentage of cells from BAL … RB6-8C5” value turned out to be 2 ± 2%, the “Percentage of cells from BAL … Eosinophil” value is listed as 0 ± 0% and the “Percentage of cells from BAL … Lymphocyte” value came to 12 ± 4%. For the same molecule, in experiment [1], the “Percentage of cells from BAL … Macrophage” value was determined as 94 ± 5%, the “Percentage of cells from BAL … PMN” value was 2 ± 2% and the “mean BAL cell numbers (±SEM) recovered” value is given as 2.2 (±0.5) ×10^5 cells/ml.

B1: G glycoprotein: purified G glycoprotein isolated from RSV/A2-infected Vero cells (protein)
chain: MSKNKDQRTAKTLERTWDTLNHLLFISSCLYKLNLKSVAQITLSILAMIISTSLIIAAIIFIASANHKVTPTTAIIQDATSQIKNTTPTYLTQNPQLGISPSNPSEITSQITTILASTTPGVKSTLQSTTVKTKNTTTTQTQPSKPTTKQRQNKPPSKPNNDFHFEVFNFVPCSICSNNPTCWAICKRIPNKKPGKKTTTKPTKKPTLKTTKKDPKPQTTKSKEVPTTKPTEEPTINTTKTNIITTLLTSNTTGNPELTSQMETFHSTSSEGNPSPSQVSTTSEYPSQPSSPPNTPRQ
For the molecule B1, in experiment [1], the “Percentage of cells from BAL … B220” value worked out at 5 ± 4%, the “Percentage of cells from BAL … CD4” value turned out to be 8 ± 2%, the “Percentage of cells from BAL … CD8” value turned out to be 4 ± 3% and the “Percentage of cells from BAL … CD11b” value is 12 ± 5%. Also, in experiment [1], the “Percentage of cells from BAL … DX5” value was determined as 9 ± 6%, the “Percentage of cells from BAL … RB6-8C5” value came out at 10 ± 4%, the “Percentage of cells from BAL … Eosinophil” value was 0 ± 0% and the “Percentage of cells from BAL … Lymphocyte” value was found to be 10 ± 3%. Moreover, in experiment [1], the “Percentage of cells from BAL … Macrophage” value was 68 ± 10%, the “Percentage of cells from BAL … PMN” value was found to be 22 ± 4% and the “mean BAL cell numbers (±SEM) recovered” value is listed as 4.6 (±1.1) ×10^5 cells/ml. The “Range of Inhibition (%) of Fkn binding” value in experiment [3] (heparin 5 μg/ml + G glycoprotein 10 nM) is given as 80-85%. Moreover, in experiment [2] (setting [4]), the “chemotactic index toward Fkn” value was determined as 3.2. Moreover, the “inhibition of leukocyte chemotaxis toward Fkn” value in experiment [2] (substance in upper chamber) was “approximately 37%”.
